Measurements reported in patent US7790884B2, “Acylaminopiperidine compound” (Astellas Pharma Inc., priority 2006, dated 2010).

biological target: T1, human CCR4 (Homo sapiens, UniProt P51679); test: [35S]GTPγS binding test via CCR4 (human MDC-stimulated, human CCR4 expressing cell line membrane fraction); assay type: biochemical; conditions: membrane fraction of human CCR4 expressing B300-16 cells, room temperature 1 hour 30 minutes, read-out: inhibitory activity value (IC50)
T1 construct: expressed in transfected cells; membrane fraction used
T1 sequence (P51679 1-360): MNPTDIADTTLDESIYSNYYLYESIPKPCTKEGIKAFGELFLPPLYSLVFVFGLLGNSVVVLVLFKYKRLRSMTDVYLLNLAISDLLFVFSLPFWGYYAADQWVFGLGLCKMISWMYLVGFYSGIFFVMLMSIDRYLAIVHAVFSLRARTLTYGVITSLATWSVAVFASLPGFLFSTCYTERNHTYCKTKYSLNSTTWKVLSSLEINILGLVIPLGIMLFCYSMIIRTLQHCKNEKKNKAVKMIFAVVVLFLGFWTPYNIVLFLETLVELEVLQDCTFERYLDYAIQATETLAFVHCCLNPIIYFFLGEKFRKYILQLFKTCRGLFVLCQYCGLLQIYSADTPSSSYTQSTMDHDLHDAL
Description: Action for [^35S]GTPγS Binding Test Via CCR4 (1) Preparation of Human CCR4 Expressing Cell Line A vector (contains a neomycin-resistance gene) in which human CCR4 gene was inserted into downstream of the EF-1α promoter was prepared and transfected into a mouse pre B cell line B300-16 cells by electroporation. These cells were cultured using a G-418-supplemented medium, and a single cell line capable of producing human CCR4 constantly and stably was obtained by the limiting dilution method. (2) Preparation of Human CCR4 Expressing Cell Line Membrane Fraction The human CCR4 expressing cells were recovered, washed with PBS and then suspended in a lysis buffer (10 mM HEPES pH 7.5, 2 mM EDTA, proteinase inhibitor). After allowing the suspension to stand on ice for 15 minutes, the cells were disintegrated using a homogenizer and centrifuged (2000 rpm, 10 min, 4° C.). The supernatant was further subjected to ultracentrifugation (22 K, 30 min, 4° C.), and then the pellet was suspended in PBS and used in the subsequent test. (3) GTPγS Binding Test In a reaction mixture liquid containing 20 mM of HEPES pH 7.05, 100 mM of NaCl, 5 mM of MgCl2, 2 μM of GDP, human MDC, […] of [^35S]GTPγS, 1 mg of wheat germ agglutinin SPA beads and 1 μg of the human CCR4 expressing cell line membrane fraction, respective concentration of the test compound was allowed to undergo the reaction at room temperature for 1 hour and 30 minutes, and the radioactivity was measured.

IC50, ≤ 100 nM:
CN(C(=O)[C@@H]1CCCN1C)C1CCN(c2nc(Nc3ccc(Cl)cc3F)c3cc(Br)ccc3n2)CC1 [Example 7]
CCN(C(=O)[C@@H]1CCCN1)C1CCN(c2nc(Nc3ccc(Cl)cc3F)c3cc(F)c(OC)cc3n2)CC1 [Example 63]
CN(C(=O)[C@H]1CCCN1)C1CCN(c2nc(Nc3ccc(Cl)cc3F)c3ccc(C#N)cc3n2)CC1 [Example 68]
CCN(C(=O)[C@@H]1CCCN1)C1CCN(c2nc(Nc3ccc(Cl)cc3F)c3cc(Br)ccc3n2)CC1 [Example 55]
CN(C(=O)[C@H]1CCCN1)C1CCN(c2nc(Nc3ccc(Cl)cc3F)c3cc(Br)ccc3n2)CC1 [Example 27]
COc1cc2nc(N3CCC(N(C(=O)[C@@H]4CCCN4)C4CCC4)CC3)nc(Nc3ccc(Cl)cc3F)c2cc1OC [Example 16]
COc1cc2nc(N3CCC(N(C)C(=O)[C@@H]4CCCN4C)CC3)nc(Nc3ccc(Cl)cc3F)c2cc1F [Example 6]
CN(C(=O)[C@H]1CCCN1)C1CCN(c2nc(Nc3ccc(Cl)cc3)c3cc(Br)ccc3n2)CC1 [Example 44]
CCN(C(=O)[C@H]1CCCN1C)C1CCN(c2nc(Nc3ccc(Cl)cc3F)c3cc(Br)ccc3n2)CC1 [Example 58]
CN(C(=O)[C@@H]1CCCN1)C1CCN(c2nc(Nc3ccc(Cl)cc3F)c3cc(Br)ccc3n2)CC1 [Example 54]
COc1cc2nc(N3CCC(N(C)C(=O)[C@H]4CCCN4C)CC3)nc(Nc3ccc(Cl)cc3F)c2cc1OC [Example 19]
COc1cc2nc(N3CCC(N(C)C(=O)[C@H]4CCCN4)CC3)nc(Nc3ccc(Cl)cn3)c2cc1F [Example 74]
COc1cc2nc(N3CCC(N(C)C(=O)[C@@H]4CCCN4)CC3)nc(Nc3ccc(Cl)cc3F)c2cc1F [Example 61]
CN(C(=O)[C@@H]1CCCN1)C1CCN(c2nc(Nc3ccc(Cl)cc3F)c3ccc(C#N)cc3n2)CC1 [Example 5]
COc1cc2nc(N3CCC(N(C)C(=O)[C@H]4CCCN4)CC3)nc(NCc3ccc(Cl)cc3F)c2cc1F [Example 79]
CN(C(=O)[C@@H]1CCCN1C)C1CCN(c2nc(Nc3ccc(Cl)cc3F)c3cc(F)ccc3n2)CC1 [Example 31]
COc1cc2nc(N3CCC(N(C(=O)[C@H]4CCCCN4)C4CCC4)CC3)nc(Nc3ccc(Cl)cc3F)c2cc1OC [Example 91]
CCN(C(=O)[C@H]1CCCN1)C1CCN(c2nc(Nc3ccc(Cl)cc3)c3cc(F)ccc3n2)CC1 [Example 40]
CCN(C(=O)[C@H]1CCCN1C)C1CCN(c2nc(Nc3ccc(Cl)cc3F)c3cc(F)ccc3n2)CC1 [Example 50]
CN(C(=O)[C@H]1CCCN1)C1CCN(c2nc(Nc3ccc(Cl)cc3)c3cc(F)ccc3n2)CC1 [Example 39]
CN(C(=O)[C@H]1CCCN1C)C1CCN(c2nc(Nc3ccc(Cl)cc3F)c3cc(F)ccc3n2)CC1 [Example 32]
CN(C(=O)[C@@H]1CCCN1)C1CCN(c2nc(Nc3ccc(Cl)cc3F)c3cc(F)ccc3n2)CC1 [Example 29]
CCN(C(=O)[C@H]1CCCN1C)C1CCN(c2nc(Nc3ccc(Cl)cc3)c3cc(Br)ccc3n2)CC1 [Example 60]
CCN(C(=O)[C@@H]1CCCN1C)C1CCN(c2nc(Nc3ccc(Cl)cc3F)c3cc(F)ccc3n2)CC1 [Example 49]
CCN(C(=O)[C@@H]1CCCN1)C1CCN(c2nc(Nc3ccc(Cl)cc3)c3cc(Br)ccc3n2)CC1 [Example 64]
CCN(C(=O)[C@@H]1CCCN1)C1CCN(c2nc(Nc3ccc(Cl)cc3F)c3cc(OC)c(OC)cc3n2)CC1 [Example 9]
COc1cc2nc(N3CCC(N(C(=O)[C@H]4CCCN4C)C4CC4)CC3)nc(Nc3ccc(Cl)cc3F)c2cc1OC [Example 21]
COc1cc2nc(N3CCC(N(C)C(=O)[C@H]4CCCN4)CC3)nc(Nc3cc(F)c(F)cc3F)c2cc1F [Example 72]
COc1cc2nc(N3CCC(N(C)C(=O)[C@H]4CCCN4CC(O)CO)CC3)nc(Nc3ccc(Cl)cc3F)c2cc1F (stereo partly drawn) [Example 80]
CN(C(=O)[C@@H]1CCCN1C)C1CCN(c2nc(Nc3ccc(Cl)cc3F)c3cnn(CC(F)(F)F)c3n2)CC1 [Example 103]
CCN(C(=O)[C@H]1CCCN1)C1CCN(c2nc(Nc3ccc(Cl)cc3F)c3cc(F)ccc3n2)CC1 [Example 33]
CCN(C(=O)[C@H]1CCCN1C)C1CCN(c2nc(Nc3ccc(Cl)cc3F)c3ccc(C#N)cc3n2)CC1 [Example 24]
COc1cc2nc(N3CCC(N(C)C(=O)[C@H]4CCCN4CCO)CC3)nc(Nc3ccc(Cl)cc3F)c2cc1F [Example 77]
CN(C(=O)[C@H]1CCCN1)C1CCN(c2nc(Nc3ccc(Cl)cc3F)c3cnn(C)c3n2)CC1 [Example 95]
CCN(C(=O)[C@H]1CCCN1)C1CCN(c2nc(Nc3ccc(Cl)cc3F)c3cc(Br)ccc3n2)CC1 [Example 56]
COc1cc2nc(N3CCC(N(C(=O)[C@H]4CCCN4)C4CCC4)CC3)nc(Nc3ccc(Cl)cc3F)c2cc1OC [Example 17]
CN(C(=O)[C@@H]1CCCN1)C1CCN(c2nc(Nc3ccc(Cl)cc3)c3cc(F)ccc3n2)CC1 [Example 38]
COc1cc2nc(N3CCC(N(C)C(=O)[C@@H]4CCCCN4)CC3)nc(Nc3ccc(Cl)cc3F)c2cc1OC [Example 86]
COc1cc2nc(N3CCC(N(C)C(=O)[C@H]4CCCN4)CC3)nc(Nc3ccc(Cl)cc3F)c2cc1F [Example 62]
CN(C(=O)[C@@H]1CCCN1)C1CCN(c2nc(Nc3ccc(Cl)cc3)c3cc(Br)ccc3n2)CC1 [Example 43]
CN(C(=O)[C@H]1CCCN1C)C1CCN(c2nc(Nc3ccc(Cl)cc3)c3cc(Br)ccc3n2)CC1 [Example 47]
CCN(C(=O)[C@H]1CCCN1)C1CCN(c2nc(Nc3ccc(Cl)cc3F)c3cc(F)c(OC)cc3n2)CC1 [Example 65]
COc1cc2nc(N3CCC(N(C(=O)[C@@H]4CCCN4)C4CC4)CC3)nc(Nc3ccc(Cl)cc3F)c2cc1OC [Example 13]
COc1cc2nc(N3CCC(N(C)C(=O)[C@H]4CCCN4C)CC3)nc(Nc3ccc(Cl)cc3F)c2cc1F [Example 66]
CN(C(=O)[C@H]1CCCN1C)C1CCN(c2nc(Nc3ccc(Cl)cc3F)c3ccc(C#N)cc3n2)CC1 [Example 70]
CN(C(=O)[C@H]1CCCN1)C1CCN(c2nc(Nc3ccc(Cl)cc3F)c3cnn(CC(F)(F)F)c3n2)CC1 [Example 102]
CN(C(=O)[C@@H]1CCCN1)C1CCN(c2nc(Nc3ccc(Cl)cc3F)c3cnn(CC(F)(F)F)c3n2)CC1 [Example 101]
COc1cc2nc(N3CCC(N(C(=O)[C@@H]4CCCN4C)C4CC4)CC3)nc(Nc3ccc(Cl)cc3F)c2cc1OC [Example 20]
CN(C(=O)[C@H]1CCCN1C)C1CCN(c2nc(Nc3ccc(Cl)cc3F)c3cnn(CC(F)(F)F)c3n2)CC1 [Example 104]
COc1cc2nc(N3CCC(N(C)C(=O)[C@H]4CCCN4)CC3)nc(Nc3ccc(F)cn3)c2cc1F [Example 76]
COc1cc2nc(N3CCC(N(C)C(=O)[C@H]4CCCN4)CC3)nc(Nc3c(F)cc(Cl)cc3F)c2cc1F [Example 78]
